Reference: patent publication US11174223B2, “Compositions, methods, and systems for the synthesis and use of imaging agents” (Lantheus Medical Imaging, Inc., priority 2010, dated 2021)
Structures can show the parent of a compound that is named as a salt.

Tests used:
[1] = Solubility of salt forms in acetonitrile; assay type: physicochemical; conditions: organic solvent or mixture, read-out: Solubility (Acetonitrile; mg/mL)
Text: (§1) Selected physical properties of the salts of Examples 5-6 and 8-12, determined using established characterization methods, are tabulated below (Table 1).

[2] = Stability of salt forms to GVS and 40° C./75% RH; assay type: physicochemical; conditions: salt form of imaging agent precursor-1
Text: as §1

[3] = Thermal stability of salt forms; assay type: physicochemical; conditions: salt form of imaging agent precursor-1
Text: as §1

[4] = Hygroscopicity of salt forms of imaging agent precursor-1; assay type: physicochemical; conditions: salt form of imaging agent precursor-1
Text: as §1

[5] = Cardiac PET imaging in rabbit models of regional and systemic cardiac sympathetic denervation (CSD); assay type: in vivo, rabbits; conditions: rabbits
Experimental: Rabbit models of regional and systemic CSD were used. To develop regional CSD, a median sternotomy was performed and phenol (89% in liquid) was pained on the anterior and posterior walls of the left ventricle. To develop systemic denervation the neurotoxin, 6-hydroxydopamine (25 mg/kg on day 1, 2, 7 and 8), was administered intravenously. Two weeks following these procedures, rabbits were imaged with imaging agent-1 (˜1.5 mCi, i.v.) using a microPET camera for 30 minutes.

[6] = tested on: norepinephrine transporter (NET), uptake 1; test: Heart uptake in rabbits after uptake 1 blockade (desipramine) or 6-hydroxydopamine sympathetic denervation; assay type: in vivo; conditions: denervated rabbits and uptake 1 blocked rabbits and NHPs
Experimental: (§2) Imaging agent-1 was designed as a substrate for the norepinephrine transporter (NET) to image the cardiac sympathetic nervous system. […] These values were similar to that of MIBG (2.12±0.26 μM and 4.76±0.78 pmol/min/million cells). In animals, tissue biodistribution of imaging agent-1 was assessed by tissue sampling at 15- and 60-minute following administration. Heart uptake was 2.36±0.16 and 2.17±0.12% injected dose per g tissue (% ID/g) in rats and 0.25±0.03 and 0.28±0.03% ID/g in rabbits. In rabbits, desipramine (1 mg/kg) inhibited heart uptake of imaging agent-1 by 68% and ^123I-MIBG uptake by 55% at 1 hour post dose.
(§3) Desipramine, a selective uptake 1 inhibitor, was used to block cardiac uptake 1 in rats (10 mg/kg, ip), rabbits (1 mg/kg iv), and NHPs (0.5 mg/kg, iv). 6-hydroxydopamine, a neurotoxin, was injected to induce sympathetic denervation in rats (100 mg/kg ip for 7 days) and rabbits (25 mg/kg iv on day 1, 2, 7, and 8). Imaging agent-1 heart uptake in comparison with MIBG was assessed by tissue sampling at 60 minutes post imaging agent injection. Imaging was also performed with (2-tert-butyl-4-chloro-5-[4-(2-[^18F]fluoroethoxymethyl)-benzyloxy]-2H-pyridazin-3-1.

[7] = Cardiac PET imaging in rabbit model of regional cardiac sympathetic denervation (RCSD) and re-innervation; assay type: in vivo, rabbits; conditions: all rabbits including those with RCSD regions
Experimental: (§4) Rabbit models of RCSD were developed by applying phenol directly on the surface of the left ventricular wall during a sternotomy. Two and twelve weeks following the procedure, imaging agent-1 cardiac PET imaging (˜1.5 mCi, iv) were performed in these rabbits. The myocardial area with radioactivity ≥50% maximum was quantified as innervated region for comparison. To evaluate susceptibility of arrhythmia in rabbits, dofetilide (10 and 40 μg/kg iv, a delayed IKr inhibitor) induced changes were assessed by measuring ECG including heart rate (HR), QTc interval (corrected by Fridericia method), and frequency of arrhythmia.

[8] = tested on: norepinephrine transporter (NET), uptake 1; test: Heart uptake in rats after uptake 1 blockade (desipramine) or 6-hydroxydopamine sympathetic denervation; assay type: in vivo; conditions: sympathetic denervated rats
Experimental: as §3

[9] = molecular target: T1, NET (Rattus norvegicus, UniProt Q63380); test: Cell uptake selectivity with and without desipramine in PC-12 cells; assay type: cell-based
T1 construct: endogenous in cells; host or cells: PC-12
Experimental: (§5) The affinity (Ki) was determined in a competition binding assay by incubating ^19F-imaging agent-1, a cold analog of imaging agent-1, or NE with ^3H-desmethylimipramine in cell membrane overexpressing human NET. The uptake selectivity was assessed by measuring imaging agent-1 or ^3H-NE cell uptake with and without pretreatment of desipramine, a selective NET inhibitor, in SK—N—SH (human neuroblastoma) and PC-12 (rat pheochromocytoma) cells. In SK—NSH cells, the uptake kinetics (Km and Vmax) were evaluated by measuring NET mediated uptake of imaging agent-1 or NE at various concentrations. Imaging agent-1 cardiac image quality was evaluated by PET imaging (˜1.5 mCi, i.v.) in rabbits in the presence and absence of desipramine (1 mg/kg).

[10] = molecular target: T2, NET (Homo sapiens, UniProt P23975); test: Cell uptake selectivity with and without desipramine in SK-N-SH cells; assay type: cell-based; design: endogenous in cells; host or cells: SK-N-SH
Experimental: as §5

[11] = molecular target: T2, NET; test: NET mediated uptake kinetics in SK-N-SH cells; assay type: cell-based; design: endogenous in cells; host or cells: SK-N-SH
Experimental: as §5

[12] = molecular target: T2, NET; test: Effect of heart failure medications on NET mediated imaging agent-1 uptake in SK-N-SH cells; assay type: cell-based; design: endogenous in cells; host or cells: SK-N-SH; conditions: even at the highest concentrations tested (1000 μM)
[13] = molecular target: T3, norepinephrine transporter (NET) (Homo sapiens, UniProt P23975); test: Uptake and uptake kinetics in SH-SY5Y human neuroblastoma cells; assay type: cell-based; conditions: SH-SY5Y cells
T3 construct: endogenous in cells; host or cells: SH-SY5Y
Experimental: as §2

[14] = Dofetilide induced ECG changes (arrhythmia susceptibility) in RCSD rabbits; assay type: in vivo; conditions: RCSD versus control
Experimental: as §4

[15] = molecular target: T4, norepinephrine transporter (NET), uptake 1 (Oryctolagus cuniculus, UniProt G1TDF9); test: Heart uptake in rabbits after uptake 1 blockade (desipramine) or 6-hydroxydopamine sympathetic denervation; assay type: in vivo; conditions: rabbits, desipramine 1 mg/kg, 1 hour post dose
T4 construct: from tissue; host or cells: rabbit heart, in vivo
Experimental: as §2, §3

[16] = Heart uptake by tissue sampling in Dahl Salt Sensitive (DSS) rats, a model of heart failure; assay type: in vivo
Experimental: The prognostic value of imaging agent-1 was evaluated in Dahl Salt Sensitive (DSS) rats, a rat model of heart failure (HF), and compared with ^123I-meta-iodobenzylguanidine (^123I-MIBG). DSS rats were fed either a low salt (0.1% as control) or high salt diet (8%) for 5 or 9 weeks. To determine the progression of HF in these rats, plasma norepinephrine levels, and heart and lung weights were measured. Compared to low salt diet groups, DSS rats fed a high salt diet for 5 weeks had marked increases in norepinephrine levels (258±28 vs. 1242±184 pg/mL) and heart to body weight ratio (3.3±0.1 vs. 4.5±0.3 mg/g). By 9 weeks, the norepinephrine levels (656±219 vs. 1508±165 pg/mL) and heart to body weight ratio (3.2±0.1 vs. 6.1±0.3 mg/g) had increased further and the lung to body weight ratio had become elevated (3.9±0.1 vs. 14.0±1.4 mg/g). […] Imaging agent-1 and MIBG heart uptake was examined in early and late stage HF rats by tissue sampling after intravenous administration. The uptake was measured using a gamma counter and expressed as differential absorption ratio (DAR). The imaging agent-1 heart uptake decreased following progression of HF from early to late stage HF (low salt group vs. high salt group: 6.9±0.6 vs. 5.1±0.6 and 8.1±0.2 vs. 3.1±0.2 DAR at 5 and 9 weeks respectively).

T2 sequence (P23975 whole entry): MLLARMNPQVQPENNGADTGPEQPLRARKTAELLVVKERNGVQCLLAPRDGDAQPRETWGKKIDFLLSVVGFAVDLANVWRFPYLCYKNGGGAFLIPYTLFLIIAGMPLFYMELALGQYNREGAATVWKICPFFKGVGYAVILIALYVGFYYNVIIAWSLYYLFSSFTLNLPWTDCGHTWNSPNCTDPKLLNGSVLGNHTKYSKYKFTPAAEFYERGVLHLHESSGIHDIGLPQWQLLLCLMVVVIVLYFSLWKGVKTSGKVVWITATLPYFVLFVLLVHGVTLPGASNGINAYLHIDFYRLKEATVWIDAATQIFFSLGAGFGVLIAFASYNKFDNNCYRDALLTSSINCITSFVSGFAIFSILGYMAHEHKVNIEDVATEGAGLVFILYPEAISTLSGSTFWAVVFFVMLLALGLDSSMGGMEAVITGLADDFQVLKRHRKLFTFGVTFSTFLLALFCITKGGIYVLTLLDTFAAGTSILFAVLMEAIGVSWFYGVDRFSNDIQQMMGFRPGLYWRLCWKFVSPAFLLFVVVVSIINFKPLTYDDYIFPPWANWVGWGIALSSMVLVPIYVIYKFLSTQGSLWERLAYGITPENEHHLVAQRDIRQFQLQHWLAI
T3 sequence (P23975 whole entry): as above
T1 sequence (Q63380 1-617): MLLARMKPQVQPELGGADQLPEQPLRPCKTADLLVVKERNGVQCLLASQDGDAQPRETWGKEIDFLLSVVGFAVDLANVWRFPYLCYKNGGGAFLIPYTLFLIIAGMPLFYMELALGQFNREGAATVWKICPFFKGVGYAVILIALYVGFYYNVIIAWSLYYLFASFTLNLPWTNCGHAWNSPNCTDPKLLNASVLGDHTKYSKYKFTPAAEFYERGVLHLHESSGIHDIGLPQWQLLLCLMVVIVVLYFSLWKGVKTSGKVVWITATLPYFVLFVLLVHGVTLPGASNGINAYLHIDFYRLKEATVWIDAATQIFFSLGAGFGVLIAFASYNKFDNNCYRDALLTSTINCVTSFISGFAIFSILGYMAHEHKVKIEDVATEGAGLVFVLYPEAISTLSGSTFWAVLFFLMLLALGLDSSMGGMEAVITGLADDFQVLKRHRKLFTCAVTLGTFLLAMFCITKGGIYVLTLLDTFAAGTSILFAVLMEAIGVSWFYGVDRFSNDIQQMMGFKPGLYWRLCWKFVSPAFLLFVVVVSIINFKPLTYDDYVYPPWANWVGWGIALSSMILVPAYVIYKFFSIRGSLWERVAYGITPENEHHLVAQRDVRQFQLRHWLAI
T4 sequence (G1TDF9 1-617): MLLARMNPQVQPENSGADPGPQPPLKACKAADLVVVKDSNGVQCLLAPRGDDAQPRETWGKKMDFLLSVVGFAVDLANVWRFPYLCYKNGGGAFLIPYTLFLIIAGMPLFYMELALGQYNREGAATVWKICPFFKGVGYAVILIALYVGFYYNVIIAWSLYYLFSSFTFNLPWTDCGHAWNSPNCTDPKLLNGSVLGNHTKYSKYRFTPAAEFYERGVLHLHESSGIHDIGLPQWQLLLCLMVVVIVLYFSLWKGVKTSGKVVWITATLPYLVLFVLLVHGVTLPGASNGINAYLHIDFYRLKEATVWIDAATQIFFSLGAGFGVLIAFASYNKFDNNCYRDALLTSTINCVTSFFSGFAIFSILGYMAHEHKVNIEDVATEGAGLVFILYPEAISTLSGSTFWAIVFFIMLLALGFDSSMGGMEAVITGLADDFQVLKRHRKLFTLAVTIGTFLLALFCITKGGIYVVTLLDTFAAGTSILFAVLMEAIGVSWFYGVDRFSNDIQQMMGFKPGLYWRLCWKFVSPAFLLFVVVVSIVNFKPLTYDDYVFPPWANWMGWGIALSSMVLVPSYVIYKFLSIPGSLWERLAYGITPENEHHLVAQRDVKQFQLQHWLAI

SMILES: N=C(N)NCc1ccc(OCCCOS(=O)(=O)c2ccc(Br)cc2)c(Br)c1.O=C(O)c1ccccc1 [Benzoate, 3-(2-Bromo-4-(guanidinomethyl)phenoxy)propyl 4-bromobenzenesulfonate, benzoic acid salt]
- solubility [1]: 1.5 mg/mL

SMILES: N=C(N)NCc1ccc(OCCCOS(=O)(=O)c2ccc(Br)cc2)c(Br)c1 [Phosphate, 3-(2-Bromo-4-(guanidinomethyl)phenoxy)propyl 4-bromobenzenesulfonate, phosphoric acid salt]
- Stability to GVS and 40° C./75% RH [2]: Stable
- Thermal stability, First event at [3]: 155 °C
- solubility [1]: 0.3 mg/mL
- Hygroscopicity [4]: Slight

SMILES: CC(C)(C)n1ncc(OCc2ccc(COCC[18F])cc2)c(Cl)c1=O [(2-tert-butyl-4-chloro-5-[4-(2-[^18F]fluoroethoxymethyl)-benzyloxy]-2H-pyridazin-3-1, reference compound]
- Cardiac perfusion imaging, control versus denervated rabbits [5]: no differences were observed
- Cardiac imaging, myocardial activity [6]: marked activity reduction
- Perfusion imaging, myocardial distribution [7]: homogeneous myocardial distribution
- Cardiac imaging, myocardial activity versus control [8]: comparable myocardial activity

SMILES: CS(=O)(=O)O.N=C(N)NCc1ccc(OCCCOS(=O)(=O)c2ccc(Br)cc2)c(Br)c1 [Mesylate, 3-(2-Bromo-4-(guanidinomethyl)phenoxy)propyl 4-bromobenzenesulfonate, methanesulfonic acid salt]
- Stability to GVS and 40° C./75% RH [2]: Stable
- Thermal stability, First event at [3]: 152 °C
- solubility [1]: 1.28 mg/mL
- Hygroscopicity [4]: Slight

SMILES: NC[C@H](O)c1ccc(O)c(O)c1 [NE, norepinephrine, reference compound]
- Inhibition of cell uptake by blockade of NET (desipramine) [9]: 93±1%
- Inhibition of cell uptake by blockade of NET (desipramine) [10]: 97±1%
- Vmax (NET mediated uptake) [11]: 6.2±0.7 pMol/million cells/min

SMILES: N=C(N)NCc1ccc(OCCCOS(=O)(=O)c2ccc(Br)cc2)c(Br)c1 [Sulfate, 3-(2-Bromo-4-(guanidinomethyl)phenoxy)propyl 4-bromobenzenesulfonate, sulfuric acid salt]
- Thermal stability, First event at [3]: 103 °C
- Hygroscopicity [4]: Hygroscopic

SMILES: C[C@H](CS)C(=O)N1CCC[C@H]1C(=O)O [captopril]
- Effect on imaging agent-1 uptake [12]: no effect

SMILES: Cl.N=C(N)NCc1ccc(OCCCOS(=O)(=O)c2ccc(Br)cc2)c(Br)c1 [Hydrochloride, 3-(2-Bromo-4-(guanidinomethyl)phenoxy)propyl 4-bromobenzenesulfonate, hydrochloric acid salt]
- Stability to GVS and 40° C./75% RH [2]: Stable
- Thermal stability, First event at [3]: 117 °C
- Hygroscopicity [4]: Indicates hydrate

SMILES: N=C(N)NCc1ccc(OCCCOS(=O)(=O)c2ccc(Br)cc2)c(Br)c1.O=C(O)C(F)(F)F [Trifluoroacetate, 3-(2-Bromo-4-(guanidinomethyl)phenoxy)propyl 4-bromobenzenesulfonate, trifluoroacetate salt]
- Stability to GVS and 40° C./75% RH [2]: Stable
- Thermal stability, First event at [3]: 142 °C
- solubility [1]: 4.68 mg/mL
- Hygroscopicity [4]: Slight

SMILES: CCCCc1nc(Cl)c(CO)n1Cc1ccc(-c2ccccc2-c2nn[nH]n2)cc1 [Losartan, losartan]
- Effect on imaging agent-1 uptake [12]: no effect

SMILES: N=C(N)NCc1cccc(I)c1 [MIBG, ^123I-meta-iodobenzylguanidine]
- Km [13]: 2.12 ± 0.26 µM

SMILES: CC(=O)O.N=C(N)NCc1ccc(OCCCOS(=O)(=O)c2ccc(Br)cc2)c(Br)c1 [Acetate, 3-(2-Bromo-4-(guanidinomethyl)phenoxy)propyl 4-bromobenzenesulfonate, acetic acid salt]
- solubility [1]: 0.4 mg/mL

SMILES: CN(CCOc1ccc(NS(C)(=O)=O)cc1)CCc1ccc(NS(C)(=O)=O)cc1 [Dofetilide, dofetilide]
- Induced QTc prolongation, frequency of premature ventricular contraction, and torsades de pointes ([14]; 10 and 40 μg/kg iv): more prominent in the RCSD group than in control
- Induced changes in HR [14]: comparable in the two groups

SMILES: N=C(N)NCc1cccc([123I])c1 [MIBG, ^123I-meta-iodobenzylguanidine]
- Inhibition of heart uptake by desipramine (uptake 1 blockade) [15]: 55%
- Heart uptake, differential absorption ratio (DAR) ([16]; high salt group, 5 weeks (early stage HF)): 3.8±0.5 DAR
- Heart uptake, differential absorption ratio (DAR) ([16]; high salt group, 9 weeks (late stage HF)): 2.3±0.3 DAR
- Heart uptake, differential absorption ratio (DAR) ([16]; low salt group, 5 weeks): 7.3±0.1 DAR
- Heart uptake, differential absorption ratio (DAR) ([16]; low salt group, 9 weeks): 7.9±0.5 DAR
- Vmax (uptake kinetics) [13]: 4.76±0.78 pmol/min/million cells
